Results from PubChem BioAssay (NCI).
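Growth conditions: 96-well plates. Treatment: test compound, 48 hours, 5 concentrations. Analysis: linear interpolation between bracketing concentrations; unreached endpoints set to highest concentration. The concentration for 50% growth inhibition is given as GI50. Definition used: TGI = concentration required for complete inhibition of growth.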

Assays:
Experiment in all cases: NCI tumour cell line growth inhibition, 48 h
SW-620 colon = test system: SW-620 colon
SF-295 CNS = test system: SF-295 CNS
OVCAR-4 ovarian = test system: OVCAR-4 ovarian
A498 renal = test system: A498 renal
HOP-92 NSCLC = test system: HOP-92 NSCLC
TK-10 renal = test system: TK-10 renal
SK-MEL-28 melanoma = test system: SK-MEL-28 melanoma
MALME-3M melanoma = test system: MALME-3M melanoma
DU-145 prostate = test system: DU-145 prostate
HL-60(TB) leukemia = test system: HL-60(TB) leukemia
UACC-62 melanoma = test system: UACC-62 melanoma
SK-MEL-5 melanoma = test system: SK-MEL-5 melanoma
SK-MEL-2 melanoma = test system: SK-MEL-2 melanoma
HCT-116 colon = test system: HCT-116 colon
KM12 colon = test system: KM12 colon
MCF7 breast = test system: MCF7 breast
786-0 renal = test system: 786-0 renal
MDA-MB-231 breast = test system: MDA-MB-231 breast
SN12C renal = test system: SN12C renal
ACHN renal = test system: ACHN renal
CAKI-1 renal = test system: CAKI-1 renal
HOP-62 NSCLC = test system: HOP-62 NSCLC
A549 NSCLC = test system: A549 NSCLC
HS 578T breast = test system: HS 578T breast
LOX IMVI melanoma = test system: LOX IMVI melanoma
RPMI-8226 leukemia = test system: RPMI-8226 leukemia
OVCAR-8 ovarian = test system: OVCAR-8 ovarian
SK-OV-3 ovarian = test system: SK-OV-3 ovarian
EKVX NSCLC = test system: EKVX NSCLC
NCI-H226 lung = test system: NCI-H226 lung
UACC-257 melanoma = test system: UACC-257 melanoma
MDA-MB-435 = test system: MDA-MB-435
SNB-75 CNS = test system: SNB-75 CNS
MOLT-4 leukemia = test system: MOLT-4 leukemia
UO-31 renal = test system: UO-31 renal
CCRF-CEM leukemia = test system: CCRF-CEM leukemia
HCC-2998 colon = test system: HCC-2998 colon
IGROV1 ovarian = test system: IGROV1 ovarian
NCI-H522 lung = test system: NCI-H522 lung
NCI-H460 lung = test system: NCI-H460 lung
U251 CNS = test system: U251 CNS
PC-3 prostate = test system: PC-3 prostate
NCI-H23 lung = test system: NCI-H23 lung
COLO 205 colon = test system: COLO 205 colon
HT29 colon = test system: HT29 colon
M14 melanoma = test system: M14 melanoma
OVCAR-3 ovarian = test system: OVCAR-3 ovarian
SF-539 CNS = test system: SF-539 CNS
SF-268 CNS = test system: SF-268 CNS
K-562 leukemia = test system: K-562 leukemia
BT-549 breast = test system: BT-549 breast
OVCAR-5 ovarian = test system: OVCAR-5 ovarian
SNB-19 CNS = test system: SNB-19 CNS
RXF 393 renal = test system: RXF 393 renal
NCI/ADR-RES ovarian = test system: NCI/ADR-RES ovarian
T-47D breast = test system: T-47D breast
HCT-15 colon = test system: HCT-15 colon

Work on `O=C(Nc1n[nH]c2nc(-c3ccco3)ccc12)C1CC1` yielded a GI50 (SW-620 colon) of over 25 µM, a TGI (SW-620 colon) of over 25 µM and a GI50 (SF-295 CNS) of over 25 µM. The TGI (SF-295 CNS) was over 25 µM, the GI50 (OVCAR-4 ovarian) was over 25 µM and the TGI (OVCAR-4 ovarian) was over 25 µM. For the same compound, the GI50 (A498 renal) was over 25 µM, the TGI (A498 renal) was over 25 µM and the GI50 (HOP-92 NSCLC) was over 7.9 µM. It also gave a TGI (HOP-92 NSCLC) of over 7.9 µM, a GI50 (TK-10 renal) of over 25 µM and a TGI (TK-10 renal) of over 25 µM. For the same compound, the GI50 (SK-MEL-28 melanoma) was over 25 µM, the TGI (SK-MEL-28 melanoma) was over 25 µM and the GI50 (MALME-3M melanoma) was over 25 µM. The TGI (MALME-3M melanoma) was over 25 µM, the GI50 (DU-145 prostate) was over 25 µM and the TGI (DU-145 prostate) was over 25 µM. The GI50 (HL-60(TB) leukemia) was over 25 µM, the TGI (HL-60(TB) leukemia) was over 25 µM and the GI50 (UACC-62 melanoma) was over 25 µM. It also gave a TGI (UACC-62 melanoma) of over 25 µM, a GI50 (SK-MEL-5 melanoma) of over 25 µM and a TGI (SK-MEL-5 melanoma) of over 25 µM. It also gave a GI50 (SK-MEL-2 melanoma) of over 25 µM, a TGI (SK-MEL-2 melanoma) of over 25 µM and a GI50 (HCT-116 colon) of over 25 µM. The TGI (HCT-116 colon) was over 25 µM, the GI50 (KM12 colon) was over 25 µM and the TGI (KM12 colon) was over 25 µM. It also gave a GI50 (MCF7 breast) of over 25 µM, a TGI (MCF7 breast) of over 25 µM and a GI50 (786-0 renal) of over 25 µM. The TGI (786-0 renal) was over 25 µM, the GI50 (MDA-MB-231 breast) was over 25 µM and the TGI (MDA-MB-231 breast) was over 25 µM. For the same compound, the GI50 (SN12C renal) was over 25 µM, the TGI (SN12C renal) was over 25 µM and the GI50 (ACHN renal) was over 25 µM. The TGI (ACHN renal) was over 25 µM, the GI50 (CAKI-1 renal) was over 25 µM and the TGI (CAKI-1 renal) was over 25 µM. For the same compound, the GI50 (HOP-62 NSCLC) was over 25 µM, the TGI (HOP-62 NSCLC) was over 25 µM and the GI50 (A549 NSCLC) was over 25 µM. For the same compound, the TGI (A549 NSCLC) was over 25 µM, the GI50 (HS 578T breast) was over 25 µM and the TGI (HS 578T breast) was over 25 µM. The GI50 (LOX IMVI melanoma) was over 25 µM, the TGI (LOX IMVI melanoma) was over 25 µM and the GI50 (RPMI-8226 leukemia) was over 25 µM. For the same compound, the TGI (RPMI-8226 leukemia) was over 25 µM, the GI50 (OVCAR-8 ovarian) was over 25 µM and the TGI (OVCAR-8 ovarian) was over 25 µM. For the same compound, the GI50 (SK-OV-3 ovarian) was over 25 µM, the TGI (SK-OV-3 ovarian) was over 25 µM and the GI50 (EKVX NSCLC) was over 25 µM. It also gave a TGI (EKVX NSCLC) of over 25 µM, a GI50 (NCI-H226 lung) of over 25 µM and a TGI (NCI-H226 lung) of over 25 µM. For the same compound, the GI50 (UACC-257 melanoma) was over 25 µM, the TGI (UACC-257 melanoma) was over 25 µM and the GI50 (MDA-MB-435) was over 25 µM. It also gave a TGI (MDA-MB-435) of over 25 µM, a GI50 (SNB-75 CNS) of over 25 µM and a TGI (SNB-75 CNS) of over 25 µM. The GI50 (MOLT-4 leukemia) was over 25 µM, the TGI (MOLT-4 leukemia) was over 25 µM and the GI50 (UO-31 renal) was over 25 µM. The TGI (UO-31 renal) was over 25 µM, the GI50 (CCRF-CEM leukemia) was over 25 µM and the TGI (CCRF-CEM leukemia) was over 25 µM. For the same compound, the GI50 (HCC-2998 colon) was over 25 µM, the TGI (HCC-2998 colon) was over 25 µM and the GI50 (IGROV1 ovarian) was over 25 µM. The TGI (IGROV1 ovarian) was over 25 µM, the GI50 (NCI-H522 lung) was over 25 µM and the TGI (NCI-H522 lung) was over 25 µM. It also gave a GI50 (NCI-H460 lung) of over 25 µM, a TGI (NCI-H460 lung) of over 25 µM and a GI50 (U251 CNS) of over 25 µM. It also gave a TGI (U251 CNS) of over 25 µM, a GI50 (PC-3 prostate) of over 25 µM and a TGI (PC-3 prostate) of over 25 µM. For the same compound, the GI50 (NCI-H23 lung) was over 25 µM, the TGI (NCI-H23 lung) was over 25 µM and the GI50 (COLO 205 colon) was over 25 µM. It also gave a TGI (COLO 205 colon) of over 25 µM, a GI50 (HT29 colon) of over 25 µM and a TGI (HT29 colon) of over 25 µM. The GI50 (M14 melanoma) was over 25 µM, the TGI (M14 melanoma) was over 25 µM and the GI50 (OVCAR-3 ovarian) was over 25 µM. It also gave a TGI (OVCAR-3 ovarian) of over 25 µM, a GI50 (SF-539 CNS) of over 25 µM and a TGI (SF-539 CNS) of over 25 µM. For the same compound, the GI50 (SF-268 CNS) was over 25 µM, the TGI (SF-268 CNS) was over 25 µM and the GI50 (K-562 leukemia) was over 25 µM. The TGI (K-562 leukemia) was over 25 µM, the GI50 (BT-549 breast) was over 25 µM and the TGI (BT-549 breast) was over 25 µM. The GI50 (OVCAR-5 ovarian) was over 25 µM, the TGI (OVCAR-5 ovarian) was over 25 µM and the GI50 (SNB-19 CNS) was over 25 µM. For the same compound, the TGI (SNB-19 CNS) was over 25 µM, the GI50 (RXF 393 renal) was over 25 µM and the TGI (RXF 393 renal) was over 25 µM. It also gave a GI50 (NCI/ADR-RES ovarian) of over 25 µM, a TGI (NCI/ADR-RES ovarian) of over 25 µM and a GI50 (T-47D breast) of over 25 µM. The TGI (T-47D breast) was over 25 µM, the GI50 (HCT-15 colon) was over 25 µM and the TGI (HCT-15 colon) was over 25 µM.
